Source: ChEMBL document CHEMBL5385866, “Switch type I to type II TRK inhibitors for combating clinical resistance induced by xDFG mutation for cancer therapy” (Eur J Med Chem, 2023)

Key:
[1] = target: High affinity nerve growth factor receptor (Homo sapiens, UniProt P04629); experiment: Inhibition of TRKA (unknown origin) using […] peptide as substrate incubated for 1 hr in presence of ATP by FRET based Z'-lyte assay
[2] = target: NT-3 growth factor receptor (Homo sapiens, UniProt Q16288); experiment: Inhibition of TRKC (unknown origin) using […] peptide as substrate incubated for 1 hr in presence of ATP by FRET based Z'-lyte assay
[3] = target: BDNF/NT-3 growth factors receptor (Homo sapiens, UniProt Q16620); experiment: Inhibition of TRKB (unknown origin) using […] peptide as substrate incubated for 1 hr in presence of ATP by FRET based Z'-lyte assay
[4] = target: High affinity nerve growth factor receptor (Homo sapiens, UniProt P04629, G667C); experiment: Inhibition of TRKA G667C mutant (unknown origin) using […] peptide as substrate incubated for 1 hr in presence of ATP by FRET based Z'-lyte assay
[5] = test system: BaF3; experiment: cells; conditions: Mus musculus, BaF3, 72 h
Description: Antiproliferative activity against mouse BaF3 cells harbouring CD74-TRKA assessed as inhibition of cell growth incubated for 72 hrs by CCK8 assay

[6] = test system: BaF3; experiment: cells; conditions: Mus musculus, BaF3, 72 h; remark: listed apart in the source
Description: Antiproliferative activity against mouse BaF3 cells harbouring ETV6-TRKB assessed as inhibition of cell growth incubated for 72 hrs by CCK8 assay

[7] = test system: BaF3; experiment: cells; conditions: Mus musculus, BaF3, 72 h; remark: listed apart in the source
Description: Antiproliferative activity against mouse BaF3 cells harbouring ETV6-TRKC assessed as inhibition of cell growth incubated for 72 hrs by CCK8 assay

[8] = test system: BaF3; experiment: cells; conditions: Mus musculus, BaF3, 72 h; remark: listed apart in the source
[9] = test system: BaF3; experiment: cells; conditions: Mus musculus, BaF3, 72 h; remark: listed apart in the source
Description: Antiproliferative activity against mouse BaF3 cells assessed as inhibition of cell growth incubated for 72 hrs by CCK8 assay

[10] = test system: BaF3; experiment: cells; conditions: Mus musculus, BaF3, 72 h; remark: listed apart in the source
Description: Antiproliferative activity against mouse BaF3 cells harbouring CD74-TRKA G623R mutant assessed as inhibition of cell growth incubated for 72 hrs by CCK8 assay

[11] = test system: BaF3; experiment: cells; conditions: Mus musculus, BaF3, 72 h; remark: listed apart in the source
Description: Antiproliferative activity against mouse BaF3 cells harbouring CD74-TRKA G595R mutant assessed as inhibition of cell growth incubated for 72 hrs by CCK8 assay

[12] = test system: BaF3; experiment: Induction of apoptosis in mouse BaF3 cells harboring CD74-TRKA G667C mutant assessed as viable cells at 50 nM incubated 48 hrs by Annexin V-FITC/7-AAD staining based flow cytometric analysis (reference value: 89.60%); type: functional; conditions: read-out: Activity
[13] = test system: BaF3; experiment: Induction of apoptosis in mouse BaF3 cells harboring CD74-TRKA G667C mutant assessed as viable cells at 10 nM incubated 48 hrs by Annexin V-FITC/7-AAD staining based flow cytometric analysis (reference value: 89.60%); type: functional; conditions: read-out: Activity
[14] = test system: BaF3; experiment: Induction of apoptosis in mouse BaF3 cells harboring CD74-TRKA G667C mutant assessed as viable cells at 2 nM incubated 48 hrs by Annexin V-FITC/7-AAD staining based flow cytometric analysis (reference value: 89.60%); type: functional; conditions: read-out: Activity
[15] = test system: BaF3; experiment: Induction of apoptosis in mouse BaF3 cells harboring CD74-TRKA G667C mutant assessed as viable cells at 0.4 nM incubated 48 hrs by Annexin V-FITC/7-AAD staining based flow cytometric analysis (reference value: 89.60%); type: functional; conditions: read-out: Activity
[16] = test system: BaF3; experiment: Induction of apoptosis in mouse BaF3 cells harboring CD74-TRKA assessed as viable cells at 500 nM incubated 48 hrs by Annexin V-FITC/7-AAD staining based flow cytometric analysis (reference value: 89.30%); type: functional; conditions: read-out: Activity
[17] = test system: BaF3; experiment: Induction of apoptosis in mouse BaF3 cells harboring CD74-TRKA assessed as viable cells at 100 nM incubated 48 hrs by Annexin V-FITC/7-AAD staining based flow cytometric analysis (reference value: 89.30%); type: functional; conditions: read-out: Activity
[18] = test system: BaF3; experiment: Induction of apoptosis in mouse BaF3 cells harboring CD74-TRKA assessed as viable cells at 20 nM incubated 48 hrs by Annexin V-FITC/7-AAD staining based flow cytometric analysis (reference value: 89.30%); type: functional; conditions: read-out: Activity
[19] = test system: BaF3; experiment: Induction of apoptosis in mouse BaF3 cells harboring CD74-TRKA assessed as viable cells at 4 nM incubated 48 hrs by Annexin V-FITC/7-AAD staining based flow cytometric analysis (reference value: 89.30%); type: functional; conditions: read-out: Activity
[20] = target: Proto-oncogene tyrosine-protein kinase receptor Ret (Homo sapiens, UniProt P07949); experiment: Inhibition of RET (unknown origin)
[21] = target: Vascular endothelial growth factor receptor 2 (Homo sapiens, UniProt P35968); experiment: Inhibition of VEGFR2 (unknown origin)
[22] = target: T1, Receptor-type tyrosine-protein kinase FLT3 (Homo sapiens, UniProt P36888); experiment: Inhibition of FLT3 (unknown origin)
T1 sequence (P36888 whole entry): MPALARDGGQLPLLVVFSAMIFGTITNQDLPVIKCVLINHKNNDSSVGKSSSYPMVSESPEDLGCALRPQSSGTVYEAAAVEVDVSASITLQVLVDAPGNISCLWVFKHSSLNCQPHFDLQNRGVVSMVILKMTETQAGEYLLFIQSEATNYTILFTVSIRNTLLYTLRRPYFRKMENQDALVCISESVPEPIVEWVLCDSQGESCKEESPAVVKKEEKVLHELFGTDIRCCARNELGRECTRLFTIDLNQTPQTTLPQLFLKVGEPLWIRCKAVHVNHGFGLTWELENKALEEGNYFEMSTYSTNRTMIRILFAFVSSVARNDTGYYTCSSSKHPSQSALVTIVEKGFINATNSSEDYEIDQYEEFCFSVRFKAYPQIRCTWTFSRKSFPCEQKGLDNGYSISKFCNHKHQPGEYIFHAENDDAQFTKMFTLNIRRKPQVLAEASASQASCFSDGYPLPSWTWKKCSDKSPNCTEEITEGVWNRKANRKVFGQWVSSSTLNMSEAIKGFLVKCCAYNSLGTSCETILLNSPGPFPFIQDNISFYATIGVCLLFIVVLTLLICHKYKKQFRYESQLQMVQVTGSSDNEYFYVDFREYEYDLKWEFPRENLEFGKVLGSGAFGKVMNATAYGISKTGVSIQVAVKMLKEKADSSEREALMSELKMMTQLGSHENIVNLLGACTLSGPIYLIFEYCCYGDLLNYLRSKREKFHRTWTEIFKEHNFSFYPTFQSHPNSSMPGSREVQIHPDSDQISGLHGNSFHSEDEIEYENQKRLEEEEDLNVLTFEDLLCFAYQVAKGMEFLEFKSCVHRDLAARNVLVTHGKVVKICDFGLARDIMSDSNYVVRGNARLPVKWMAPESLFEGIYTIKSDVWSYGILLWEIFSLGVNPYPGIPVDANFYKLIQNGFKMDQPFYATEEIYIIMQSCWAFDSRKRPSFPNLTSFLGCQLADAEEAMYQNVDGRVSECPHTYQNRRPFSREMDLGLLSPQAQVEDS

Sequence of NT-3 growth factor receptor (Q16288 whole entry): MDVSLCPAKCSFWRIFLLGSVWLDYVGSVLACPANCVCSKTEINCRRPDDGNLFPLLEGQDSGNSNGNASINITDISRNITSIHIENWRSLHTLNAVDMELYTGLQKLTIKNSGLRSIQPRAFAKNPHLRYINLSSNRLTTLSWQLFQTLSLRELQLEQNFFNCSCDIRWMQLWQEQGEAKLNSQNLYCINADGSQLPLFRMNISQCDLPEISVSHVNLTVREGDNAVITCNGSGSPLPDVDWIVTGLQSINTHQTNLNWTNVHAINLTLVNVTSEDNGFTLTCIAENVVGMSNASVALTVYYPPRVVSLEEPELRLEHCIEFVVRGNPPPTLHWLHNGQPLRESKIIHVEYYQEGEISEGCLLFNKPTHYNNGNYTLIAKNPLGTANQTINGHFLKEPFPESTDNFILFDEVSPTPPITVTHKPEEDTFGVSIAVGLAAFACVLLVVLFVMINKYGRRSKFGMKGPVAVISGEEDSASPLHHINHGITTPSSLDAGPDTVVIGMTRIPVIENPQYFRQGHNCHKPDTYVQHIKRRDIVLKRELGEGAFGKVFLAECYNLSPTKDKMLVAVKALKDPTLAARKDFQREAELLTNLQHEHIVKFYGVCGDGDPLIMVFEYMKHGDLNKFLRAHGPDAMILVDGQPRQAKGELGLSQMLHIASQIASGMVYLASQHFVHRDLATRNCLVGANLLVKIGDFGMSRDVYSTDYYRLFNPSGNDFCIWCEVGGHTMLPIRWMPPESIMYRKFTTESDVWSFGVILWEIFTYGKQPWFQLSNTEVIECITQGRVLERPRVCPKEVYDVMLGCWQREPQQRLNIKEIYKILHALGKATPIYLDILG
Sequence of High affinity nerve growth factor receptor (Homo sapiens, UniProt P04629) (P04629 whole entry): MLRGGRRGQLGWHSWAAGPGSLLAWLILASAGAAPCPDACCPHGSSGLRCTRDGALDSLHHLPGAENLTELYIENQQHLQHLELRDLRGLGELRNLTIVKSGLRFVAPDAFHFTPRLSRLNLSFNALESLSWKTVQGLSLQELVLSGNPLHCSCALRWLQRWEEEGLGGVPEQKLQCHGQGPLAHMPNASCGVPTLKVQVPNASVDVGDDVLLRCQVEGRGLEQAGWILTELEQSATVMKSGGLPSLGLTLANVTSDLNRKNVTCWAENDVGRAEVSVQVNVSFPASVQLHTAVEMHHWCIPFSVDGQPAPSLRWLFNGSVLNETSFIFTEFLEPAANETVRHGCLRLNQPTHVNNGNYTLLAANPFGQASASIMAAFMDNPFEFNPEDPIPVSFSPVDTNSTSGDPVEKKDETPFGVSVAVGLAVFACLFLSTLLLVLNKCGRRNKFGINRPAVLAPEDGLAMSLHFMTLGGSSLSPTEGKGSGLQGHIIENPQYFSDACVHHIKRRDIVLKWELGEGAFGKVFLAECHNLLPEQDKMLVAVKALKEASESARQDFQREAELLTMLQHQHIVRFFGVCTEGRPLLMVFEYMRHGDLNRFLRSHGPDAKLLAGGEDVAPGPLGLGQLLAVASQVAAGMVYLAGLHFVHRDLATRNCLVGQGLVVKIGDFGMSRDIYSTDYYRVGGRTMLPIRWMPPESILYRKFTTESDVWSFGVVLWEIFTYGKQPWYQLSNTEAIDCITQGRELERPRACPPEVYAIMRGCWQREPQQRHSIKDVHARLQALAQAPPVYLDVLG
Sequence of BDNF/NT-3 growth factors receptor (Q16620 whole entry): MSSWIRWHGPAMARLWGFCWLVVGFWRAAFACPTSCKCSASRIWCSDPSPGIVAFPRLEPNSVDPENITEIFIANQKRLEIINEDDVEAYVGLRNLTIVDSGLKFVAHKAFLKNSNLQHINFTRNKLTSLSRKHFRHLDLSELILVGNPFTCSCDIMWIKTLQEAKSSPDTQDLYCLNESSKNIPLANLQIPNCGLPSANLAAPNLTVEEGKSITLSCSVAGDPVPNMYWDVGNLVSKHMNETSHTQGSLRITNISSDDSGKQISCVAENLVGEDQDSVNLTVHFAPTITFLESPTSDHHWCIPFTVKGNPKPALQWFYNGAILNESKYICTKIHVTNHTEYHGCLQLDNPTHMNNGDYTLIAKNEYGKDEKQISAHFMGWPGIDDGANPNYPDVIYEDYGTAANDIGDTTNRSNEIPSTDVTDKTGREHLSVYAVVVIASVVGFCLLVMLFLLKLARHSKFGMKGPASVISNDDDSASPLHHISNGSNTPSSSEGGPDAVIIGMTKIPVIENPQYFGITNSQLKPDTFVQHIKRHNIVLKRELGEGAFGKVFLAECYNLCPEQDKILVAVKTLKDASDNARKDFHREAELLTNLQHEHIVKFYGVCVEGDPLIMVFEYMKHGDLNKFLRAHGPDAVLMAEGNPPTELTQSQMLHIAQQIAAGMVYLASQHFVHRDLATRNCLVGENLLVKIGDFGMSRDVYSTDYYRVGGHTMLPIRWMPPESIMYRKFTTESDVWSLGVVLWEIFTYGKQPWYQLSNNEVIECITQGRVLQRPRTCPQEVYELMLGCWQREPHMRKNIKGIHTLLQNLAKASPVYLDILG
Sequence of High affinity nerve growth factor receptor (Homo sapiens, UniProt P04629, G667C) (P04629 33-796 G667C limits assumed): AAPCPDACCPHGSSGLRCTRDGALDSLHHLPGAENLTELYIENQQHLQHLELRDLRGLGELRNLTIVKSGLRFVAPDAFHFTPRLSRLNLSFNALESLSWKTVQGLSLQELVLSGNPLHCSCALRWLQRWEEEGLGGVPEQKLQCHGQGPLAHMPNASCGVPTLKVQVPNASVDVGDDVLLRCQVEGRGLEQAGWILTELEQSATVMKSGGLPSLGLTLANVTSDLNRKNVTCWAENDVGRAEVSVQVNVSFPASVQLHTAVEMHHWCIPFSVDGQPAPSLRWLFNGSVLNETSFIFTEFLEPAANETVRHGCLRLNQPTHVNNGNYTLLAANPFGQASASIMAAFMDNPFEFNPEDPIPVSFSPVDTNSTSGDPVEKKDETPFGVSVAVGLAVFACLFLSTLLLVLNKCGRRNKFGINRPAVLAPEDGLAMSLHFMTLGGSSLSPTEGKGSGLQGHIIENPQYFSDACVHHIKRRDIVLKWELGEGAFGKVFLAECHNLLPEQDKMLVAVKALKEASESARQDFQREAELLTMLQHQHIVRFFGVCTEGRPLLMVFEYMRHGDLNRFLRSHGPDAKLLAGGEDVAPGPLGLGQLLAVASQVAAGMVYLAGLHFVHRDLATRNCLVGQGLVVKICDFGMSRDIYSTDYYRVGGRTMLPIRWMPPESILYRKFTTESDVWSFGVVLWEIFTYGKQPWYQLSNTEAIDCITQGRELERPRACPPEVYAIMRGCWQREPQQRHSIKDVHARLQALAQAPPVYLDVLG
Sequence of Proto-oncogene tyrosine-protein kinase receptor Ret (P07949 whole entry): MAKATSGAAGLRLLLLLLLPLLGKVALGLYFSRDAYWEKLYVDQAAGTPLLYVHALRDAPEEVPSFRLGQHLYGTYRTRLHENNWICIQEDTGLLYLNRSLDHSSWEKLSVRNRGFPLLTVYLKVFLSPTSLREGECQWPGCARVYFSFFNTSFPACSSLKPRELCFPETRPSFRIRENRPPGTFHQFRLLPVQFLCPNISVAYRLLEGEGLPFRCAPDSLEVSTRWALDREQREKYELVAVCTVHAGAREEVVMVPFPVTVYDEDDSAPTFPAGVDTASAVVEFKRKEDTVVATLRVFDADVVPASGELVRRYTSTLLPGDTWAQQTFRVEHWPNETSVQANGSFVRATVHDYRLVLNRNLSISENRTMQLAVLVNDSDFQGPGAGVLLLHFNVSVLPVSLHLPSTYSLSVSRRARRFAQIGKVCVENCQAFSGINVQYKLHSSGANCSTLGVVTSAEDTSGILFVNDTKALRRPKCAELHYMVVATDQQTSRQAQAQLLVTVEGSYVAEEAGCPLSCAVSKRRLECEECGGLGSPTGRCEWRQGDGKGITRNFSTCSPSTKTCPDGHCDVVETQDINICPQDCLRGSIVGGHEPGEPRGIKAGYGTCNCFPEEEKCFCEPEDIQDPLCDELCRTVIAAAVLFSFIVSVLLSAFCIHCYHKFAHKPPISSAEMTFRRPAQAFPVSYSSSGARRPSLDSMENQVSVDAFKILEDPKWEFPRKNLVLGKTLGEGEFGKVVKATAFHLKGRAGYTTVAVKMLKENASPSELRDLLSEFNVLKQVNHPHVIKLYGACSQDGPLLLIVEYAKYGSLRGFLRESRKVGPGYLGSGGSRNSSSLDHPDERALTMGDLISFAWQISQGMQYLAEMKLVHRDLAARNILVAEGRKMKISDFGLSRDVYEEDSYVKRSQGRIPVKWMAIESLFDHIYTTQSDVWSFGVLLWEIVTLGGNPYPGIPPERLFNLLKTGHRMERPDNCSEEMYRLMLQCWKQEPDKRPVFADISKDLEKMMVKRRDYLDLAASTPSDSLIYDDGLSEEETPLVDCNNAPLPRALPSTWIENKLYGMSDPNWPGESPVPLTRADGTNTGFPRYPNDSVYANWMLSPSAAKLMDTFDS

Row | Structure (SMILES) | IC50 [1] [nM] | IC50 [2] [nM] | IC50 [3] [nM] | IC50 [4] [nM] | IC50 [5] [nM] | IC50 [6] [nM] | IC50 [7] [nM] | IC50 [8] [nM] | further results
1 | CN1CCN(Cc2ccc(NC(=O)[C@@H]3CCN(c4ccc5ncc(-c6cnn(C7CCOCC7)c6)n5n4)C3)cc2C(F)(F)F)CC1 | 13.2 | – | 26.8 | 35.5 | – | – | – | – | –
2 | Cc1conc1NC(=O)N[C@@H]1CCN(c2ccc3ncc(-c4ccccn4)n3n2)C1 | 68.7 | 36.8 | – | 241 | – | – | – | – | –
3 | C[C@@H]1CCc2ncc(F)cc2[C@H]2CCCN2c2ccn3ncc(c3n2)C(=O)N1 [SELITRECTINIB] | – | – | – | – | 1.7 | 5.2 | 1.2 | – | –
4 | Cc1cn(-c2cc(NC(=O)[C@@H]3CCN(c4ccc5ncc(-c6ccccn6)n5n4)C3)cc(C(F)(F)F)c2)cn1 | 13.1 | 10.1 | 5.9 | 25.2 | 29.1 | 25.3 | 15.8 | 1.8 | –
5 | O=C(Nc1cnn2ccc(N3CCC[C@@H]3c3cc(F)ccc3F)nc12)N1CC[C@H](O)C1 [LAROTRECTINIB] | – | – | – | – | 9.3 | 29.7 | 15.4 | 284 | IC50 [9]: > 2000 nM; IC50 [10]: > 1000 nM; IC50 [11]: > 1000 nM
6 | CN1CCN(Cc2ccc(NC(=O)[C@@H]3CCN(c4ccc5nccn5n4)C3)cc2C(F)(F)F)CC1 | 245 | – | > 1000 | 938 | – | – | – | – | –
7 | CN1CCN(Cc2ccc(NC(=O)[C@@H]3CCN(c4ccc5ncc(-c6cccnc6)n5n4)C3)cc2C(F)(F)F)CC1 | – | 8 | 11.1 | – | – | – | – | – | –
8 | CN1CCN(Cc2ccc(NC(=O)[C@@H]3CCN(c4ccc5ncc(-c6cnn(CCO)c6)n5n4)C3)cc2C(F)(F)F)CC1 | 8.7 | – | 21.6 | 52.5 | – | – | – | – | –
9 | O=C(Nc1ccc(Cl)c(C(F)(F)F)c1)N[C@@H]1CCN(c2ccc3ncc(-c4ccccn4)n3n2)C1 | 45.7 | 17 | 81.6 | 15.1 | 695 | 508 | 225 | 4.4 | –
10 | CN1CCN(Cc2cc(NC(=O)[C@H]3CCN(c4ccc5ncc(-c6ccccn6)n5n4)C3)cc(C(F)(F)F)c2)CC1 | 35.2 | 40.2 | 50.8 | 98.1 | 261 | 215 | 141 | 49.3 | –

Continued, in another order:

Row | IC50 [1] [nM] | IC50 [2] [nM] | IC50 [3] [nM] | IC50 [4] [nM] | IC50 [5] [nM] | IC50 [6] [nM] | IC50 [7] [nM] | IC50 [8] [nM] | Structure (SMILES) | further results
11 | 5.8 | 8.1 | 5.1 | 16.5 | 61.5 | 51.8 | 26.4 | 9.3 | CN1CCN(Cc2cc(NC(=O)[C@@H]3CCN(c4ccc5ncc(-c6ccccn6)n5n4)C3)cc(C(F)(F)F)c2)CC1 | –
12 | 5.8 | 7.8 | 13.8 | 33.8 | 296 | 522 | 195 | 27.3 | CN1CCN(Cc2ccc(NC(=O)[C@@H]3CCN(c4ccc5ncc(-c6cn[nH]c6)n5n4)C3)cc2C(F)(F)F)CC1 | –
13 | 6 | – | 9.6 | 16.7 | – | – | – | – | CN1CCN(Cc2ccc(NC(=O)[C@@H]3CCN(c4ccc5ncc(-c6ccc(N)nc6)n5n4)C3)cc2C(F)(F)F)CC1 | –
14 | 3.3 | 4.3 | – | 9.4 | – | – | – | – | CN1CCN(Cc2ccc(NC(=O)[C@@H]3CCN(c4ccc5ncc(-c6ccccn6)n5n4)C3)cc2C(F)(F)F)CC1 | viability at 0.05 µM [12]: 43%; viability at 0.01 µM [13]: 87.6%; viability at 0.002 µM [14]: 89.8%; viability at 0.0004 µM [15]: 89.1%; viability at 0.5 µM [16]: 60.8%; viability at 0.1 µM [17]: 78.1%; viability at 0.02 µM [18]: 87.8%; viability at 0.004 µM [19]: 59.9%; IC50 [20]: 9.9 nM; IC50 [21]: 71.1 nM; IC50 [22]: 1.3 nM
